# Laboratory results taken from US20220362249A1, “METHODS FOR TREATING […]” (PTC Therapeutics MP, Inc., priority 2019, published 2022).
# Values joined by “and” are separate entries in the source; they are usually repeats but may differ in a detail not shown here. Identical values can stand only once.
# Columns and labels:
# Type in all cases: in vivo, human
# [1] = Comparison of adverse events in fed and fasted subjects; conditions: single dose 10 mg/kg, twelve subjects
# Protocol: Method: Twelve subjects were given a single dose (10 mg/kg) of sepiapterin under fasting conditions and then 7 days later under fed conditions. Standard definitions of adverse events (AE) were used. All-cause AE were those that occurred at any time; treatment-emergent adverse events (TEAE) were those that occurred at or after the time of administration of study treatment. TEAEs related to study drug were based on the opinion of the investigator. Serious AE were defined as life threatening or caused death, hospitalization or prolongation of existing hospitalization, or were a persistent or significant disability/incapacity or a substantial disruption of the ability to conduct normal life functions, or a congenital anomaly/birth defect.
# blood Phe = assay: Reduction of blood Phe in patients with PKU, randomized crossover of PTC923 vs sapropterin dihydrochloride; conditions: for Proportion of patients achieving blood Phe <360 μmol/L: n of 24; for Mean (SD) blood Phe, At baseline: Day 1 pre-dose; for Least squares mean (SE) change from baseline in blood Phe / Mean (SD) blood Phe, Change / Mean (SD) blood Phe, On treatment: 7 days; for Mean (SD) blood Phe, On treatment: mean of days 3, 5 and 7
# Protocol: Following screening for eligibility, a 7-day run-in period commenced. Patients then received 7 days of once-daily oral treatment with either PTC923 20 mg/kg/day (“low dose”), or PTC923 60 mg/kg/day or sapropterin dihydrochloride, in a random order. PTC923 (formerly CNSA-001) is oral sepiapterin. Each patient was randomized to one of six treatment sequences (FIG. 2). The randomization in six different treatment sequences was intended to minimize carry over effect, treatment period effect, patient fatigue, and natural fluctuations in blood Phe levels. A 7-day washout period separated each active treatment period. Patients were asked to maintain their usual pre-study diet, including consumption of amino acid mixtures if prescribed, and were monitored throughout the study by a metabolic dietician.
# Blood samples for measurement of Phe were taken on 7, 5, 3, and 1 days before randomization. During treatment periods, blood was taken pre-dose for day 1 and post-dose for days 3, 5 and 7. During the washout periods, blood was taken for measurement of Phe on days 1, 3, 5, and 7. All samples were taken under fasting conditions or no earlier than 3 hours following a meal and at the same time of day. Blood Phe was measured using a validated LC-MS-MS technique of dried blood sampling via Volumetric Absorptive Microsampling (VAMS®) using Mitra® 4-sampler clamshells, at a central bioanalytical laboratory (Agilex Biolabs Pty Ltd).
# The main objective of the study was to assess the efficacy of PTC923 measured as the mean blood Phe change from baseline. The efficacy population consisted of all patients who were randomized and had blood Phe measurements before treatment and at days 3, 5 and 7 of treatment from at least one treatment period. The safety population consisted of all patients who were randomized and who received any dose of study treatment. The sample size calculation was based on an all-comers, placebo-controlled regulatory study of sapropterin with an observed mean decrease in blood Phe of 99 μmol/L and standard deviation of 220 μmol/L, and assumed a true mean decrease in blood Phe of 300 μmol/L with 80% power utilizing a 2-sided α of 0.05.
# Response to PTC923 was evaluated by measuring the mean change from baseline in blood Phe (calculated as the mean of measurements at days 3, 5 and 7 of each treatment period). Day 1 pre-dose blood Phe concentrations for each treatment period served as the individual patient specific baseline for that period.
# The change from baseline in blood Phe of each treatment period was modelled using a linear mixed model for repeated measures (MMRM). The efficacy model included fixed effects for baseline for each treatment period, treatment group, sequence, period, and a random subject effect within each sequence, with a first order autoregressive AR (1) covariance structure. No unplanned covariates were included.
# Pairwise comparisons in changes from baseline in Phe were performed between each PTC923 treatment and sapropterin treatment by calculating the least squares means with Dunnet's method of adjustment for multiple comparisons. The estimated change in blood Phe levels, their standard errors (SE) and associated p-values were calculated for each pairwise comparison. Dunnet's method of adjustment was used to account for the multiple comparisons of the test groups against the control group. This adjustment ensured that the overall Type I error rate under the null hypothesis was maintained despite multiple test groups being compared to the single control group.
# The overall mean changes in blood Phe for each treatment were calculated and the standard deviations (SD) were determined.
# A prespecified sensitivity analysis excluded treatment periods where baseline Phe was <300 μmol/L and a responder analysis looked at patients with baselines ≥300 μmol/L who responded to sapropterin and/or to PTC923 treatment by ≥20% reduction.
# [2] = Adverse events in patients with PKU on PTC923 or sapropterin dihydrochloride; conditions: for Headache (all-cause AE): transient
# Text: PTC923 safety was monitored and adverse events (AEs) were coded using the Medical Dictionary for Regulatory Activities (MedDRA®) version 21.0. Treatment-emergent adverse events (TEAEs) were defined as AE that began on or after first dose of study drug. A TEAE was associated with the study treatment currently being received, or the last study treatment before its onset. A treatment-related TEAE was, in the judgment of the investigator possibly, probably or definitely related to treatment. A serious AE (SAE) was defined as resulting in death, life-threatening AE, inpatient hospitalization or prolongation of existing hospitalization, a persistent or significant disability/incapacity or a substantial disruption of the ability to conduct normal life functions, or a congenital anomaly/birth defect.
# [3] = All subjects (N = 24), 20 mg/kg/day oral
# [4] = All subjects (N = 24), 60 mg/kg/day oral
# [5] = Subjects with classical PKU (N = 11), 20 mg/kg/day oral
# [6] = Subjects with classical PKU (N = 11), 60 mg/kg/day oral
# [7] = patients on PTC923 60mg/kg with at least 30% reduction in Phe
smiles,measurement,setting,value
"C[C@H](O)C(=O)C1=Nc2c(nc(N)[nH]c2=O)NC1 [sepiapterin, Sepiapterin]",TEAE,[1]; Fasted,4
same,TEAE related to study drug,[1]; Fasted,1
same,≥1 AE,[1]; Fasted,5
same,TEAE,[1]; Fed,1
same,TEAE related to study drug,[1]; Fed,0
same,≥1 AE,[1]; Fed,1
same,Proportion of patients achieving blood Phe <360 μmol/L,blood Phe; 20 mg/kg,46%
same,Proportion of patients achieving blood Phe <360 μmol/L,blood Phe; 60 mg/kg,50%
same,LSM difference in blood Phe change vs. sapropterin dihydrochloride,"blood Phe; 11 patients with classical PKU, PTC923 60 mg/kg",-148.0 µmol/L
same,"Mean (SD) blood Phe, At baseline","blood Phe; All subjects (N = 24), 20 mg/kg period",694.2 (396.0) μmol/L
same,Least squares mean (SE) change from baseline in blood Phe,blood Phe; [3],−146.9 (41.8) μmol/L
same,"Mean (SD) blood Phe, Change",blood Phe; [3],−143.7 (224.8) μmol/L
same,"Mean (SD) blood Phe, On treatment",blood Phe; [3],550.4 (433.7) μmol/L
same,"Mean (SD) blood Phe, At baseline","blood Phe; All subjects (N = 24), 60 mg/kg period",727.8 (388.2) μmol/L
same,Least squares mean (SE) change from baseline in blood Phe,blood Phe; [4],−206.4 (41.8) μmol/L
same,"Mean (SD) blood Phe, Change",blood Phe; [4],−210.1 (235.8) μmol/L
same,"Mean (SD) blood Phe, On treatment",blood Phe; [4],517.7 (411.7) μmol/L
same,Least squares mean change from baseline in blood Phe to first Phe measurement (Day 3),"blood Phe; Day 3, 20 mg/kg",-167.5 µmol/L
same,Least squares mean change from baseline in blood Phe to first Phe measurement (Day 3),"blood Phe; Day 3, 60 mg/kg",-206.6 µmol/L
same,LSM difference in blood Phe change vs. sapropterin dihydrochloride,"blood Phe; Day 3, PTC923 20 mg/kg, underlying changes in μmol/L",−95.2
same,LSM difference in blood Phe change vs. sapropterin dihydrochloride,"blood Phe; Day 3, PTC923 60 mg/kg, underlying changes in μmol/L",−131.3
same,Effect on blood Phe compared with sapropterin dihydrochloride 20 mg/kg (in words),blood Phe; PTC923 20 mg/kg,numerically larger
same,Reducing blood Phe compared with sapropterin dihydrochloride 20 mg/kg (in words),"blood Phe; PTC923 60 mg/kg, p=0.0098",significantly more effective
same,Mean absolute reduction in plasma phenylalanine (FIG. 1),blood Phe; PTC923 (60 mg/kg/day),over 200 micromole per liter
same,"Mean (SD) blood Phe, At baseline","blood Phe; Subjects with classical PKU (N = 11), 20 mg/kg period",944.6 (354.6) μmol/L
same,"Mean (SD) blood Phe, Change",blood Phe; [5],−75.5 (201.8) μmol/L
same,Least squares mean (SE) change from baseline in blood Phe,"blood Phe; Subjects with classical PKU (N = 11), 20 mg/kg/day oral, listed as PTC923, 20 mg/kg/day",−71.5 μmol/L and −71.5 (61.8) μmol/L
same,"Mean (SD) blood Phe, On treatment",blood Phe; [5],869.1 (424.1) μmol/L
same,"Mean (SD) blood Phe, At baseline","blood Phe; Subjects with classical PKU (N = 11), 60 mg/kg period",947.2 (363.0) μmol/L
same,"Mean (SD) blood Phe, Change",blood Phe; [6],−146.0 (187.7) μmol/L
same,Least squares mean (SE) change from baseline in blood Phe,"blood Phe; Subjects with classical PKU (N = 11), 60 mg/kg/day oral, listed as PTC923, 60 mg/kg/day",−150.8 μmol/L and −150.8 (63.1) μmol/L
same,"Mean (SD) blood Phe, On treatment",blood Phe; [6],801.2 (396.5) μmol/L
same,Classical PKU subjects responding with a decrease in phenylalanine levels of at least 20%,blood Phe; classical PKU subjects,about 45%
same,"Number of patients showing blood Phe reduction of ≥20%, higher than with sapropterin",blood Phe; cofactor responder analysis,50%
same,Number of subjects normalized (day 7 blood phenylalanine less than 120 micromole per liter) compared to sapropterin dihydrochloride,blood Phe; day 7,3-4 times
same,Least squares mean change from baseline in blood Phe,"blood Phe; group of 12 responders (Phe reduction ≥20%, baseline ≥300 μmol/L), 20 mg/kg",-234.8 µmol/L
same,Least squares mean change from baseline in blood Phe,"blood Phe; group of 12 responders (Phe reduction ≥20%, baseline ≥300 μmol/L), 60 mg/kg",-322.2 µmol/L
same,LSM difference in blood Phe change vs. sapropterin dihydrochloride,"blood Phe; group of 12 responders, PTC923 60 mg/kg",-182.5 µmol/L
same,Subject-reported effects (in words),"blood Phe; human, in vivo",improvement in sleep quality and better focus
same,Times more likely to reach normalized blood phenylalanine (less than 120 micromole per liter) compared to sapropterin dihydrochloride,"blood Phe; human, in vivo",13.45 times
same,Non-classical subjects normalized (blood phenylalanine less than 120 micromole per liter),blood Phe; non-classical subjects,46%
same,Proportion of patients achieving blood Phe <360 μmol/L,blood Phe; on either dose of PTC923,54%
same,More subjects responded than to sapropterin dihydrochloride,blood Phe; overall responders,60%
same,Absolute Phe reduction from baseline,blood Phe; [7],-485.3 µmol/L
same,Absolute mean percentage change in Phe from baseline,blood Phe; [7],-72.5%
same,Least squares mean change from baseline in blood Phe,"blood Phe; sensitivity analysis population (excluding periods with baseline Phe <300 μmol/L), 20 mg/kg",-167.8 µmol/L
same,Least squares mean change from baseline in blood Phe,"blood Phe; sensitivity analysis population (excluding periods with baseline Phe <300 μmol/L), 60 mg/kg",-226.9 µmol/L
same,LSM difference in blood Phe change vs. sapropterin dihydrochloride,"blood Phe; sensitivity analysis population, PTC923 60 mg/kg",-121.4 µmol/L
same,Patients reporting any adverse event,[2]; 20 mg/kg,25%
same,Patients reporting severe AE,[2]; 20 mg/kg,4%
same,Patients reporting treatment-related AE,[2]; 20 mg/kg,0%
same,Headache (all-cause AE),[2]; 20 mg/kg,4%
same,Patients reporting any adverse event,[2]; 60 mg/kg,29%
same,Patients reporting severe AE,[2]; 60 mg/kg,0%
same,Patients reporting treatment-related AE,[2]; 60 mg/kg,13%
same,Headache (all-cause AE),[2]; 60 mg/kg,17%
